Drawing on ChEMBL document CHEMBL4028834, “Stereoselective synthesis of enantiopure N-substituted pyrrolidin-2,5-dione derivatives by 1,3-dipolar cycloaddition and assessment of their in vitro antioxidant and antibacterial activities” (Bioorg Med Chem Lett, 2017), this text covers Activity and IC50 for eight compounds.

SMILES strings stand for the structures. ≈ marks a conversion by molar mass, not a printed value.

Assay type in all cases: functional
The nature of assay [1]: Antioxidant activity assessed as DPPH free radical scavenging activity incubated for 20 mins in dark. (The DPPH test is a chemical assay of radical scavenging.)
Assay [2] is described as follows: Antioxidant activity assessed as DPPH free radical scavenging activity at 0.5 mg/ml incubated for 20 mins in dark (reference value: 1 to 9 %).
Assay [3] can be described thus: Antioxidant activity assessed as DPPH free radical scavenging activity at 1 mg/ml incubated for 20 mins in dark (reference value: 1 to 9%).
Assay [4] can be described thus: Antioxidant activity assessed as DPPH free radical scavenging activity at 2 mg/ml incubated for 20 mins in dark (reference value: 1 to 9%).
A short description of assay [5]: Antioxidant activity assessed as DPPH free radical scavenging activity at 2.5 mg/ml incubated for 20 mins in dark (reference value: 1 to 9%).
Assay [6] is described as follows: Antioxidant activity assessed as DPPH free radical scavenging activity at 3 mg/ml incubated for 20 mins in dark (reference value: 1 to 9%).
The nature of assay [7]: Antioxidant activity assessed as reduction in beta-carotene/linoleic acid bleaching activity after 2 hrs by spectrophotometric method.
The nature of assay [8]: Antioxidant activity assessed as reduction in beta-carotene/linoleic acid bleaching activity at 0.5 mg/ml after 2 hrs by spectrophotometric method (reference value: 1 to 8 %). Also noted: scale not given: the % may be the effect or the level left.
Assay [9] is described as follows: Antioxidant activity assessed as reduction in beta-carotene/linoleic acid bleaching activity at 1 mg/ml after 2 hrs by spectrophotometric method (reference value: 1 to 8%). Also noted: scale not given: the % may be the effect or the level left.
A short description of assay [10]: Antioxidant activity assessed as reduction in beta-carotene/linoleic acid bleaching activity at 2 mg/ml after 2 hrs by spectrophotometric method (reference value: 1 to 8%). The arrangement: scale not given: the % may be the effect or the level left.
A short description of assay [11]: Antioxidant activity assessed as reduction in beta-carotene/linoleic acid bleaching activity at 2.5 mg/ml after 2 hrs by spectrophotometric method (reference value: 1 to 8%). Also noted: scale not given: the % may be the effect or the level left.
Assay [12] in a line: Antioxidant activity assessed as reduction in beta-carotene/linoleic acid bleaching activity at 3 mg/ml after 2 hrs by spectrophotometric method (reference value: 1 to 8%). Also noted: scale not given: the % may be the effect or the level left.
Assay [13] in a line: Antioxidant activity assessed as ABTS radical scavenging activity incubated for 2 hrs in dark by spectrophotometric analysis.
Assay [14] is described as follows: Antioxidant activity assessed as ABTS radical scavenging activity at 0.5 mg/ml incubated for 2 hrs in dark by spectrophotometric analysis (reference value: 1 to 9 %).
The nature of assay [15]: Antioxidant activity assessed as ABTS radical scavenging activity at 1 mg/ml incubated for 2 hrs in dark by spectrophotometric analysis (reference value: 1 to 9%).
A short description of assay [16]: Antioxidant activity assessed as ABTS radical scavenging activity at 2 mg/ml incubated for 2 hrs in dark by spectrophotometric analysis (reference value: 1 to 9%).
A short description of assay [17]: Antioxidant activity assessed as ABTS radical scavenging activity at 2.5 mg/ml incubated for 2 hrs in dark by spectrophotometric analysis (reference value: 1 to 9%).
A short description of assay [18]: Antioxidant activity assessed as ABTS radical scavenging activity at 3 mg/ml incubated for 2 hrs in dark by spectrophotometric analysis (reference value: 1 to 9%).

Regarding `CC(C)[C@@H]1CC[C@@H](C)C[C@@]12N(C)C(=O)[C@@H]1[C@H]3C(=O)N(c4ccc5ccccc5c4)C(=O)[C@H]3ON12`, the Activity entry in assay [1] was “Dose-dependent effect”; in assay [2] it was 13.8%; in assay [3] it was 27.6%; in assay [4], 35%; in [5], 39.5%; in assay [6], 50.9%. The Activity came to 24.5% in assay [8]; 29.6% in assay [9]; 36.5% in assay [10]; 45.1% in assay [11]; 57.4% in [12]; 25.4% in [14]. Moreover, the Activity in [15] was found to be 33.2%; in assay [16], 43.6%; in [17], 47.9%; in assay [18], 60.1%. The results for the IC50 in assay [1], in [7] and in assay [13] were 2920 µg/mL (≈ 6.33 mM), 2680 µg/mL (≈ 5.81 mM) and 2520 µg/mL (≈ 5.46 mM), respectively.
Turning to `Cc1c(C)c2c(c(C)c1O)CCC(C)(C(=O)O)O2` (stereo unspecified) [TROLOX], in [13], the IC50 (usually the point on the concentration scale where inhibition reaches its midpoint) is 300 µg/mL (≈ 1.2 mM). In addition, the Activity came to 82.1% in assay [14]; 85.5% in assay [15]; 89.2% in assay [16]; 90.8% in assay [17]; 91.8% in assay [18].
As for `CC(C)[C@@H]1CC[C@@H](C)C[C@@]12N(C)C(=O)[C@@H]1[C@H]3C(=O)N(C)C(=O)[C@H]3ON12`, the Activity entry is “Dose-dependent effect” in assay [1]; 18.2% in assay [2]; 43.1% in assay [3]; 53.4% in assay [4]; 55.8% in [5]; 64% in assay [6]. For the same compound, the Activity turned out to be 36.5% in assay [8]; 47.7% in assay [9]; 49.7% in assay [10]; 57.2% in assay [11]; 67.5% in assay [12]; 39.2% in assay [14]. Moreover, the Activity amounted to 41.5% in assay [15], 59.9% in assay [16], 70.3% in assay [17] and 75.3% in assay [18]. In addition, the IC50 in assay [1] turned out to be 1650 µg/mL (≈ 4.72 mM); in [7] it was 2160 µg/mL (≈ 6.18 mM); in assay [13] it was 1400 µg/mL (≈ 4.01 mM).
In the case of `CC(C)[C@@H]1CC[C@@H](C)C[C@@]12N(C)C(=O)[C@@H]1[C@H]3C(=O)N(c4ccc(Cl)cc4)C(=O)[C@H]3ON12`, the Activity result is “Dose-dependent effect” in assay [1]; 18.1% in [2]; 31.7% in assay [3]; 48.2% in assay [4]; 53.1% in assay [5]; 47.2 to 63.9% in assay [6]. For the same compound, the Activity in assay [8] is 47.5%; in assay [9], 53.7%; in assay [10], 56.4%; in [11] it was 61.3%; in assay [12] it was 73.2%; in assay [14], 29.7%. Besides, the Activity in [15] came to 39.9%; in assay [16], 49.4%; in assay [17] it was 60.1%; in assay [18], 74%. The half-maximal inhibitory concentration (IC50) in assay [1] came out at 2150 µg/mL (≈ 4.82 mM); in assay [7] it was 710 µg/mL (≈ 1.59 mM); in assay [13], 2000 µg/mL (≈ 4.48 mM).
On to `Cc1cc(C(C)(C)C)c(O)c(C(C)(C)C)c1` [BUTYLATED HYDROXYTOLUENE], for which the values for the IC50 in assay [1] and in [7] were 720 µg/mL (≈ 3.27 mM) and 930 µg/mL (≈ 4.22 mM), respectively. In addition, the Activity is 33.8% in [2]; 69.2% in [3]; 84.8% in assay [4]; 85.2% in [5]; 85.8% in assay [6]; 39.6% in assay [8]. The Activity in assay [9] came out at 52.3%; in assay [10] it was 65.9%; in assay [11], 75.1%; in assay [12] it was 79.2%.
Turning to `CC(C)[C@@H]1CC[C@@H](C)C[C@@]12N(C)C(=O)[C@@H]1[C@H]3C(=O)N(c4ccccc4)C(=O)[C@H]3ON12`, the Activity result is “Dose-dependent effect” in assay [1]; 21.6% in assay [2]; 54.9% in [3]; 74.2% in assay [4]; 76.2% in assay [5]; 80.7% in assay [6]. The Activity in [8] stood at 28.7%; in assay [9] it was 35.4%; in assay [10] it was 48.2%; in assay [11] it was 53.1%; in assay [12] it was 58.9%; in assay [14], 14.7%. The Activity in assay [15] stood at 29.7%; in assay [16] it was 41%; in assay [17], 58.6%; in assay [18], 73.5%. The results for the IC50 in [1], in [7] and in assay [13] were 900 µg/mL (≈ 2.19 mM), 2310 µg/mL (≈ 5.61 mM) and 2250 µg/mL (≈ 5.47 mM), respectively.
Turning to `Cc1cccc(N2C(=O)[C@H]3[C@H](ON4[C@@H]3C(=O)N(C)[C@@]43C[C@H](C)CC[C@H]3C(C)C)C2=O)c1`, the Activity entry in assay [1] is “Dose-dependent effect”; in [2], 26.8%; in [3], 38.7%; in assay [4], 49.9%; in assay [5], 57.5%; in assay [6], 73.8%. The Activity was found to be 25% in assay [8]; 39% in assay [9]; 43.6% in [10]; 57.6% in assay [11]; 65.8% in assay [12]; 16.1% in assay [14]. For the same compound, the Activity was found to be 25.8% in [15], 35.3% in assay [16], 47.7% in assay [17] and 52.4% in [18]. Besides, the figures for the IC50 in [1], in assay [7] and in assay [13] were 1880 µg/mL (≈ 4.42 mM), 1930 µg/mL (≈ 4.54 mM) and 2700 µg/mL (≈ 6.35 mM), respectively.
With `CC(C)[C@@H]1CC[C@@H](C)C[C@@]12N(C)C(=O)[C@@H]1[C@H]3C(=O)NC(=O)[C@H]3ON12`, the Activity result in [1] was “Dose-dependent effect”; in assay [2], 21.6%; in [3], 39.3%; in assay [4], 58.7%; in assay [5], 67.2%; in assay [6], 80.3%. Further, the Activity came to 25.9% in assay [8]; 35.6% in [9]; 37.1% in assay [10]; 38% in assay [11]; 47.2% in [12]; 23.5% in assay [14]. For the same compound, the Activity amounted to 42.6% in assay [15], 57.2% in [16], 70% in assay [17] and 72% in [18]. The values for the 50% inhibitory concentration (IC50) in assay [1] and in [13] were 1550 µg/mL (≈ 4.62 mM) and 1500 µg/mL (≈ 4.47 mM), respectively.
